{"source": "patent US20100062465A1", "about": "“Detection of Histone Deacetylase Inhibition” (priority 2006, published 2010)", "key": {"[1]": {"tested_on": "PC3 human prostate cancer cells", "assay": "WST-1 cell proliferation assay", "type": "cell-based", "procedure": "PC3 human prostate cancer cells were routinely cultured in DMEM/F12 (Gibco NY USA) supplemented with 10% FCS (Hyclone, Utah USA) and 10,000 U/mL penicillin 10,000 μg/mL streptomycin and […] amphtenicin B (Gibco, NY USA) at 37° C. in 5% CO2.\nTo assess the effect on cell proliferation of BLT the colorimetric WST-1 cell proliferation assay (Roche USA) was used and manufacturer instructions followed. Briefly, 20×10^3 cells/well were seeded in 96 well plates. Cells were then treated for 24 hours with BLT at 5 μM, 10 μM, 20 μM, 50 μM, 100 μM, 200 μM, 500 μM, 1 mM, 2 mM, 5 mM and 10 mM or with matched DMSO (1.20,000 to 1.10). Subsequently cells were incubated for 4 hours with the WST-1 cell proliferation reagent and absorbance read at 440 nm using a Tecan Freedom Evo liquid handler equipped with the SAFIRE monochromator-based microplate reader (Tecan U.S., NC, USA).\nNote that controls were treated with DMSO in order to clearly identify effects which are due to the compound being investigated rather than its vehicle (DMSO). FSAHA dose was based on previous findings (Butler L M, Agus D B, Scher H I, et al. Suberoylanilide hydroxamic acid, an inhibitor of histone deacetylase, suppresses the growth of prostate cancer cells in vitro and in vivo. Cancer Res 2000 September 15;60(18):5165-70)."}, "HDAC": {"tested_on": "HDAC", "assay": "Fluor de Lys fluorometric assay of HDAC activity in PC3 cells", "type": "cell-based, human", "conditions": "for HDAC activity (relative to controls): 24 h", "procedure": "Briefly 20×10^3 cells/well were seeded in 96 well plates and incubated for 24 h with (a) 1 mM BLT (b) FSAHA at 2, 5, 10 μM (c) SAHA at 2, 5, 10 μM (d) FSAHA at 2, 5, 7, 8, 9, 10 μM in the presence of 1 mM BLT (e) FSAHA at 2, 5, 7, 8, 9, 10 μM in the presence of vehicle (DMSO). The Fluor de Lys substrate was then added for 1 h, medium removed, cells rinsed with PBS and incubated for 10 minutes with the Fluor-de-Lys developer, and fluorescence read at 460 nm using the Tecan microplate reader as above. Results were normalized to cell density as determined using the WST-1 assay in the same 96 well plate."}, "PC3 cells [2]": {"tested_on": "PC3 cells", "assay": "19F MRS of PC3 cell extracts (intracellular BLT, TFA, FSAHA)", "type": "cell-based, human", "conditions": "for Intracellular BLT level: 24 h", "procedure": "For MRS studies, PC3 cells were treated for 24 h with FSAHA at 2, 5, 7, 8, 9 and 10 μM in the presence of 1 mM BLT or with 1 mM BLT alone. Approximately 1×10^7-1.5×10^7 cells were then extracted using the dual phase extraction method as previously described (Chung Y L, Troy H, Banerji U, et al. Magnetic resonance spectroscopic pharmacodynamic markers of the heat shock protein 90 inhibitor 17-allylamino, 17-demethoxygeldanamycin (17AAG) in human colon cancer models. J Natl Cancer Inst 2003 November 5;95(21):1624-33, Tyagi R K, Azrad A, Degani H, Salomon Y. Simultaneous extraction of cellular lipids and water-soluble metabolites: evaluation by NMR spectroscopy. Magn Reson Med 1996 February;35(2):194-200.47). Briefly, cells were extensively rinsed with ice-cold saline to remove any residual extracellular BLT and medium. Cells were then fixed in 10 ml of ice-cold methanol, scraped off the surface of the culture flask, collected into glass tubes and vortexed. 10 ml of ice-cold chloroform was then added followed by 10 ml of ice-cold de-ionized water. Following phase separation and solvent removal the water-soluble fraction was reconstituted in 250 μl of deuterium oxide (D2O) and 250 μl of DMSO for ^19F MR measurements. To perform the ^31P MR measurement 100 μl of EDTA and 50 μl methylene diphosphonic acid (MDPA) in D2O were added to a final concentration of 10 mM and 0.35 mM respectively. The number of cells extracted was determined by counting a separate flask of cells. ^19F MR spectra of the water-soluble metabolites were recorded as above. Metabolite concentrations were determined by integration and comparison with the area of the external C6F6 reference, normalizing to cell number and correcting for saturation effects. Correction for saturation effects was achieved by also acquiring a quantitative inverse gated fully relaxed spectrum on two different samples and calculating the correction factors which need to be applied to the partially relaxed spectra. It was determined that the T1 relaxation of BLT is 1 s and that of C6F6 is 3 s. The fully relaxed spectrum was therefore acquired using a 90 deg. flip angle and a 15 s relaxation delay (5 times the longest T1). ^31P MR spectra were recorded on an Avance DRX500 Bruker spectrometer (Bruker Biospin Germany) using a 30 deg. flip angle and 3 s relaxation delay. Metabolite concentrations were determined by integration and comparison with the area of the internal MDPA reference, normalizing to cell number and correcting for saturation effects (correction factors were determined as above by acquiring a fully relaxed quantitative spectrum using a 90 deg. flip angle and a 30 s relaxation delay).\nTo monitor the fluorinated metabolites, the lipid phase was reconstituted in 500 μl CDCl3. To monitor the fluorinated metabolites in cellular protein, the protein pellet obtained during cell extraction was dissolved in 1 ml of 0.5 M NaOH and heated to 60° C. for 1 h. Samples were then analyzed by ^19F MRS as above."}, "PC3 cells [3]": {"tested_on": "PC3 cells", "assay": "31P MRS of PC3 cell extracts (phosphocholine)", "type": "cell-based, human", "conditions": "24 h", "procedure": "For MRS studies, PC3 cells were treated for 24 h with FSAHA at 2, 5, 7, 8, 9 and 10 μM in the presence of 1 mM BLT or with 1 mM BLT alone. […] The number of cells extracted was determined by counting a separate flask of cells. ^19F MR spectra of the water-soluble metabolites were recorded as above. Metabolite concentrations were determined by integration and comparison with the area of the external C6F6 reference, normalizing to cell number and correcting for saturation effects. Correction for saturation effects was achieved by also acquiring a quantitative inverse gated fully relaxed spectrum on two different samples and calculating the correction factors which need to be applied to the partially relaxed spectra. It was determined that the T1 relaxation of BLT is 1 s and that of C6F6 is 3 s. The fully relaxed spectrum was therefore acquired using a 90 deg. flip angle and a 15 s relaxation delay (5 times the longest T1). ^31P MR spectra were recorded on an Avance DRX500 Bruker spectrometer (Bruker Biospin Germany) using a 30 deg. flip angle and 3 s relaxation delay. […]"}, "[4]": {"conditions": "PC3 control cells, 1 mM BLT alone"}, "[5]": {"conditions": "2 μM in the presence of 1 mM BLT"}, "[6]": {"conditions": "5 μM in the presence of 1 mM BLT"}, "[7]": {"conditions": "10 μM in the presence of 1 mM BLT"}, "[8]": {"conditions": "PC3 cells, 10 μM FSAHA in the presence of 1 mM BLT"}}, "note": "“And” between values parts separate entries of the source, which are not always exact repeats. Equal entries are not always repeated. Structures can show the parent of a compound that is named as a salt."}
{"smiles": "CC(C)(C)OC(=O)N[C@@H](CCCCNC(=O)C(F)(F)F)C(=O)O", "note": "[BLT, Boc-Lys-TFA-OH]", "values": [{"measurement": "Effect on cell proliferation compared to matched DMSO controls", "setting": "[1]; 5 μM to 10 mM, 24 hours", "result": "did not significantly affect cell proliferation"}, {"measurement": "activity at 1000 µM", "setting": "[1]; Homo sapiens, PC-3, 24-hour treatment with 1 mM BLT, read-out: Cell numbers, % of controls", "result": "95 ± 4", "unit": "%"}, {"measurement": "HDAC activity levels relative to DMSO-treated controls", "setting": "HDAC; 24 hours, 1 mM", "result": "102±9", "unit": "%"}, {"measurement": "Intracellular BLT level", "setting": "PC3 cells [2]; PC3 cells, 1 mM BLT alone (control cells)", "result": "14±4 fmol/cell and 14 fmol/cell"}, {"measurement": "Intracellular TFA concentration", "setting": "PC3 cells [2]; [4]", "result": "1.1±0.6", "unit": "fmol/cell"}, {"measurement": "Phosphocholine (PC) level", "setting": "PC3 cells [3]; [4]", "result": "7±1 fmol/cell and 7 fmol/cell"}]}
{"smiles": "O=C(CCCCCCC(=O)Nc1ccc(F)cc1)NO", "note": "[FSAHA, 4-Fluorosuberanilohydroxamic acid]", "values": [{"measurement": "Cell proliferation relative to control", "setting": "[1]; 2 μM", "result": "87±5", "unit": "%"}, {"measurement": "Cell proliferation relative to control", "setting": "[1]; [5]", "result": "86±1", "unit": "%"}, {"measurement": "Cell proliferation relative to control", "setting": "[1]; 5 μM", "result": "79±3", "unit": "%"}, {"measurement": "Cell proliferation relative to control", "setting": "[1]; [6]", "result": "77±7", "unit": "%"}, {"measurement": "Cell proliferation relative to control", "setting": "[1]; 10 μM", "result": "66±6", "unit": "%"}, {"measurement": "Cell proliferation relative to control", "setting": "[1]; [7]", "result": "63±2", "unit": "%"}, {"measurement": "HDAC activity (relative to controls)", "setting": "HDAC; 2 μM", "result": "93±16", "unit": "%"}, {"measurement": "HDAC activity (relative to controls)", "setting": "HDAC; [5]", "result": "88±12", "unit": "%"}, {"measurement": "HDAC activity (relative to controls)", "setting": "HDAC; 5 μM", "result": "58±14", "unit": "%"}, {"measurement": "HDAC activity (relative to controls)", "setting": "HDAC; [6]", "result": "69±9", "unit": "%"}, {"measurement": "HDAC activity (relative to controls)", "setting": "HDAC; 10 μM", "result": "41±8", "unit": "%"}, {"measurement": "HDAC activity (relative to controls)", "setting": "HDAC; [7]", "result": "53±5% and 53%"}, {"measurement": "Average increase of intracellular BLT", "setting": "PC3 cells [2]; 10 μM FSAHA-treated PC3 cells", "result": 18, "unit": "fmol/cell"}, {"measurement": "Intracellular TFA concentration", "setting": "PC3 cells [2]; [8]", "result": "1±1", "unit": "fmol/cell"}, {"measurement": "Intracellular BLT level", "setting": "PC3 cells [2]; [8]", "result": "32±4 fmol/cell and 32 fmol/cell"}, {"measurement": "Phosphocholine (PC) level", "setting": "PC3 cells [3]; [8]", "result": "16±2 fmol/cell and 16 fmol/cell and 15 fmol/cell"}]}
